Results on one compound are retold here after paper PMC12571071, “Preventing neuropathy and improving anticancer chemotherapy with a carbazole-based compound” (Science Advances, 2025).

Data set [1] relates to rat embryonic DRG neurons. As to the kind of experiment: Primary rat sensory neuron/Schwann cell culture exposed to Cis (myelination). The class given is cell-based. The following applies: Cis 10 μg/ml; Carba1 tested at 1, 5, 10 μM. On the procedure: These experiments, conducted by Neuro-Sys company (www.neuro-sys.com/) involved primary SNs and SCs cultured as previously described ([67]). On DIV 19, cultures were pretreated with Carba1 (1 to 10 μM) for 1 hour before exposure to Cis (10 μg/ml) for 24 hours in presence of Carba1. On DIV 20, the medium containing Cis was replaced with fresh medium and Carba1 for another 24 hours, ending the culture on DIV 21. Cells were fixed with ethanol/acetic acid (95%/5%) for 5 min, permeabilized, and blocked with PBS containing 0.1% saponin and 10% FBS. Cells were incubated with monoclonal anti-MBP (1:1000) and polyclonal anti-neurofilament (1:500) antibodies for 2 hours, followed by CF 488 A goat anti-mouse (1:400, Sigma-Aldrich) and Alexa Fluor 568 goat anti-rabbit (1:400, Molecular Probe) for 1 hour at R.T. Hoechst was used to stain nuclei.
Thirty images per well were acquired at ×20 magnification using ImageXpress (Molecular Devices) with identical acquisition settings, and analysis was automated with MetaXpress software. Key parameters measured included total neurite length (NF; in micrometers), total neurons (NF^+ cells), and myelination (MBP-NF overlap, in square micrometers).

The next data set relates to PTX-induced neuropathy. In words: Rat model of PTX-induced peripheral neuropathy (von Frey, serum NfL, IENFD). The class given is in vivo. On the procedure: Control animals received an equivalent volume of the vehicle (cremophor EL:ethanol, 1:1) diluted 1:4 in 0.9% NaCl.
Carba1 was injected intraperitoneally six times (50 mg/kg) on days 0, 1, 2, 4, 7, and 9, resulting in a cumulative dose of 300 mg/kg (Fig. 2F). For each injection, Carba1 was injected intraperitoneally at 50 mg/kg on days 0, 1, 2, 4, 7, and 9, for a cumulative dose of 300 mg/kg, using a stock solution (150 mg/ml; cremophor EL:ethanol, 1:1) diluted to 50 mg/ml in 0.9% NaCl. Control animals for Carba1 received the same volume of the vehicle [cremophor EL:ethanol (1:1) diluted 1:3 in 0.9% NaCl]. […] To prevent cross-exposure through feces and urine, treatment groups were randomized by cage, with each cage housing three animals.
Tactile allodynia, a common sensory disorder reported in animal models of CIPN ([56]), was assessed using an electronic von Frey test (Bioseb) ([68]). Rats were placed in plastic compartments on a wire floor and allowed to habituate for 15 min. […] The maximum force (in grams) causing withdrawal was recorded automatically. The average of two measurements, not differing by more than 10 g, was used as the nociceptive threshold ([68]). Rats were habituated to the compartments 3 days before the first injection, and the experimenter was blinded to treatment groups.
Blood samples were collected on day 15 in vials with a clot activator, left at R.T. for up to 1 hour before centrifugation at 4100 rpm at 20°C for 10 min. Serum was then collected, aliquoted, and stored at −80°C until analysis. To reduce batch effects, serum samples were randomized on assay plates. NfL concentration was measured in the serum using commercial kits (Simple Plex Ella ProteinSimple, USA; Rat NfL Kit ProteinSimple) ([27]).
Skin samples from both hind paws were fixed in 4% PFA overnight at 4°C, followed by sucrose cryoprotection (10, 20, and 30%) at 4°C overnight. After embedding in tissue freezing medium, the samples were at −80°C. Sections (20 μm) were cut using a cryostat at −17°C, washed with PBS for 5 min, and dried. The sections were blocked in PBS/0.2% Triton X-100/1%BSA for 1 hour and then incubated overnight at R.T. with anti-PGP9.5 antibody (1:400). After washing with PBS, sections were incubated with goat anti-rabbit Alexa Fluor488 secondary antibody for 2 hours, and the nuclei were stained with DAPI. Imaging was performed by acquiring 0.5 μm Z-stacks and exposure times for DAPI and fluorescein isothiocyanate set to 600 ms. Quantification followed the method described by Lauria et al. ([69]).

The next data set deals with NAMPT (Homo sapiens, UniProt P43490). As to the kind of experiment: NAMPT activity assay (coupled recombinant enzyme kit). The class given is biochemical. On the set-up: purchased Abcam ab221819. The following applies: OD450 at 60 min, normalized by subtraction of DMSO value. The source says: We next tested whether Carba1 could activate NAMPT in vitro. To that aim, we used a commercial recombinant human enzyme assay containing four enzymes: NAMPT, NAM nucleotide adenylyltransferase 1 (NMNAT1), alcohol dehydrogenase (ADH), and diaphorase (see Materials and Methods). In the presence of NAM and 5-phosphoribosyl-1-pyrophosphate (PRPP), NAMPT converts NAM to NMN, which is then converted into NAD^+ by NMNAT1, while ADH converts NAD^+ to NADH. Then, into a coupled-reaction, diaphorase converts NADH into NAD^+ and tetrazolium salt WST-1 {4-[3-(4-iodophenyl)-2-(4-nitro-phenyl)-2H-5-tetrazolio]-1,3-benzene sulfonate} to formazan, which can be detected at optical density at 450 nm (OD450). In practice, we proceeded in two steps. First, Carba1 and the different tested compounds were incubated for 15 min with NAMPT, NMNAT1, NAM, and PRPP to allow NAD^+ production. The reaction was then stopped with FK866 before adding ADH and diaphorase to convert the NAD^+ produced to NADH, and absorbance was monitored at regular intervals.
Sequence of NAMPT (P43490 whole entry): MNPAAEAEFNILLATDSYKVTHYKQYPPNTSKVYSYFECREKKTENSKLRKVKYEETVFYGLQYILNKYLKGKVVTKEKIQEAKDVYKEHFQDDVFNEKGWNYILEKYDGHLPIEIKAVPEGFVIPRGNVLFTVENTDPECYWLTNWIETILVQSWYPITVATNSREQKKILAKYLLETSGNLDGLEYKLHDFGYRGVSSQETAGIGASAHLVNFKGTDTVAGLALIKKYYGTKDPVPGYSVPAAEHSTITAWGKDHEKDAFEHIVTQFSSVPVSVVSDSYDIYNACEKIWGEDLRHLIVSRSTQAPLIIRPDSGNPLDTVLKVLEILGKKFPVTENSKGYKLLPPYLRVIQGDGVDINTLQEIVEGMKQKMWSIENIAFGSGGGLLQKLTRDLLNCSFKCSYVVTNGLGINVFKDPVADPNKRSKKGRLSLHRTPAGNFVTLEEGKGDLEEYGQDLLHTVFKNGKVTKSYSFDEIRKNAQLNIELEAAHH
NAMPT activity was measured using the commercial kit, NAMPT Activity Assay, according to the manufacturer’s instructions. […] A mixture of water-soluble tetrazolium salts (WST-1), ADH, diaphorase, and ethanol was added and the absorbance (OD450) measured for 90 min using the microplate reader ClarioSTAR (BMG Labtech).

The mark [2] stands for this setting: rat serum, day 15, outliers removed.

In the case of `Cc1cc(-n2cccc2)c(C)c2c1[nH]c1ccc(Cl)cc12` [Compound 1], the “concentration of maximal protective effect against Cis-induced demyelination” value in data set [1] is 5 µM. Moreover, in the data set with PTX-induced neuropathy (rat hind paw biopsies, day 15), the “IENFD, mean” value is given as 19.54 number/mm and the “IENFD, median” value is on record as 19.88 number/mm. Also, in the data set on PTX-induced neuropathy (setting [2]), the “NfL, mean” value worked out at 22.14 pg/mL and the “NfL, median” value amounted to 22.40 pg/mL. The “effect on PTX-induced tactile allodynia” value in the data set on PTX-induced neuropathy (rat, Carba1 50 mg/kg i.p. x6 with PTX 5 mg/kg i.p. x4) was “prevents PTX-induced tactile allodynia”. Besides, the “effect on PTX-induced intraepidermal nerve fiber degeneration” value with PTX-induced neuropathy (rat, Carba1 cotreatment with PTX) is reported as “prevented PTX-induced intraepidermal nerve fiber degeneration”. In addition, the “tactile allodynia (paw withdrawal threshold, electronic von Frey), agent alone” value with PTX-induced neuropathy (rat, i.p., PTX 5 mg/kg x4 or Carba1 50 mg/kg x6) is recorded as “not analgesic”. Further, the “reduction of IENFD, agent alone” value with PTX-induced neuropathy (rat, vs controls) is recorded as “had no effect”. Further, at NAMPT, the “activation of NAMPT in vitro” value is on record as “enhanced NAMPT activity in a dose-dependent manner”.
